In paper PMC6343479 (2018):

How the values were obtained:
[1] = system: CTG palindrome d(CTGCTGCAGCAG) (DNA, duplex) CTGCTGCAGCAG; assay: ITC; settings: single binding model; representative curve K = (2.1 ± 0.3) ×10^6 M^-1
[2] = system: r(CUG)4 (RNA, repeat) CUGCUGCUGCUG; assay: ITC; settings: single binding model; representative curve K = (1.06 ± 0.30) ×10^7 M^-1

- KD [1]: 485 ± 73 nM
- KD [2]: 99 ± 25 nM
Structure (SMILES): N=C(N)c1ccc(-c2ccc(-c3ccc(C(=N)N)cc3)o2)cc1
